Results published in PMC10490032, “From Monoamine Oxidase Inhibition to Antiproliferative Activity: New Biological Perspectives for Polyamine Analogs” (Molecules, 2023).

Tests used:
[1] = test system: MAO activity in LN-229 lysates; test: MAO activity in LN-229 cell lysates, kynuramine assay; details: for Residual MAO activity in lysates: fraction of control
murine SMOX = murine SMOX (Mus musculus, UniProt Q99K82); design: made in house; host or cells: E. coli BL21 DE3; details: previous studies ref 35, 40; cited from earlier work
human recombinant MAO A = target: T1, human recombinant MAO A (Homo sapiens, UniProt P21397); test: MAO A inhibition, kynuramine assay (4-hydroxyquinoline fluorescence); details: for Reversibility of MAO A inhibition: 5 μM compound for 25 min, diluted 50 times, 300 μM kynuramine; for Mode of inhibition of MAO A: Lineweaver–Burk plots / global fit; for Time dependence of MAO A inhibition (Vo/VI ratio): pre-incubation 0 to 30 min with 2.5 μM compound
T1 sequence (P21397 1-527): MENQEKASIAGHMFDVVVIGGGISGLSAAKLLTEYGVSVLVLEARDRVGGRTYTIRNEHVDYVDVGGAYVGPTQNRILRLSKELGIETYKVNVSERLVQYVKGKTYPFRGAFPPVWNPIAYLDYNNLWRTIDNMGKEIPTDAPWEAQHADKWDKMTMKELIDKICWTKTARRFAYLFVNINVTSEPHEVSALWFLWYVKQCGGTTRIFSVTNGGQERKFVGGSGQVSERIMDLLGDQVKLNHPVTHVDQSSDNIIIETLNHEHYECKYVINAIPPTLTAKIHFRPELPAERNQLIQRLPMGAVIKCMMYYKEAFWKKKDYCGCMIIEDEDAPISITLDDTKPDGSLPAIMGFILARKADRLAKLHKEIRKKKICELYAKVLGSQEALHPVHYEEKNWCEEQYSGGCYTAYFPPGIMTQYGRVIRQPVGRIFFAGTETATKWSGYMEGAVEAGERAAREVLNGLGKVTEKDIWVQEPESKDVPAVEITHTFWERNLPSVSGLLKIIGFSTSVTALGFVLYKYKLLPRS

human recombinant MAO B = target: T2, human recombinant MAO B (Homo sapiens, UniProt P27338); test: MAO B inhibition, kynuramine assay (4-hydroxyquinoline fluorescence); details: for Mode of inhibition of MAO B: Lineweaver–Burk plots / global fit (compound 7: Figure S1); for Reversibility of MAO B inhibition: 5 μM compound for 25 min, diluted 50 times, 300 μM kynuramine; for Time dependence of MAO B inhibition (Vo/VI ratio): pre-incubation 0 to 30 min with 2.5 μM compound
T2 sequence (P27338 1-520): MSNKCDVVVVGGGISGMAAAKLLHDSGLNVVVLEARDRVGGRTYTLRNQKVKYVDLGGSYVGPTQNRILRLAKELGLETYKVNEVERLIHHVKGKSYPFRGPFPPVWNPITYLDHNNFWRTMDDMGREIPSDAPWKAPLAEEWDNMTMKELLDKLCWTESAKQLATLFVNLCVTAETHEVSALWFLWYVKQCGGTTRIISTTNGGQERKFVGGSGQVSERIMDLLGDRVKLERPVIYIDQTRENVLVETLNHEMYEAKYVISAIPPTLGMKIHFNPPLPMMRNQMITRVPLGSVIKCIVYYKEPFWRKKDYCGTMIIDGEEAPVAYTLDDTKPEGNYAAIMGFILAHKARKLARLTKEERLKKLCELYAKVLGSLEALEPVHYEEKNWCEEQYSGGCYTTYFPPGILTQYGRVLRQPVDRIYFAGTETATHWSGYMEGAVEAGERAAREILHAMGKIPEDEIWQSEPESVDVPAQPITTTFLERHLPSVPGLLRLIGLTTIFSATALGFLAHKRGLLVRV

[2] = test system: LN-229 glioblastoma cell line; test: Inhibition growth assay, Trypan blue exclusion; type: cell-based, human; details: LN-229, 48 h of incubation, mean ± SD of five independent experiments in duplicate
Excerpt: On this basis, we investigated the antiproliferative effect of compounds 1–7 on LN-229, a human glioblastoma cell line. Compound 1 and the well-known antitumor drug doxorubicin were taken as references. […] The data in Table 3 support the lack of cytotoxicity of compound 1.
The LN-229 (human glioblastoma) was purchased from the American Type Culture Collection (ATCC) and cultured in DMEM (D2902, Sigma Chemical Co., St. Louis, MO, USA) supplemented with 3.5 g/L of glucose and 5% heat-inactivated fetal calf serum (FCS) (F7524, Sigma Chemical Co.), respectively. A total of 100 U/mL of penicillin, 100 μg/mL of streptomycin, and 0.25 μg/mL of amphotericin B (Sigma Chemical Co.) were added to the medium. Cells were cultured at 37 °C in a humidified atmosphere incubator containing 5% carbon dioxide in air.
Cells (3–6 × 10^4/well) were seeded into a 24-well cell culture plate; after 24 h, different concentrations of the test compounds or reference drug were added. After 48 h of incubation in standard conditions, the cell viability was determined by using a Trypan blue exclusion assay. Briefly, cells were detached by using a […] and 0.3 mM EDTA solution in PBS and stained with 0.1% Trypan blue solution in PBS. Unstained viable cells were immediately counted in a Burker chamber. The percentage of viable cells was calculated with respect to the untreated control culture. […] The goodness of the fit was expressed by the r^2 coefficient, and the best fit report included the analysis of variance corrected for the mean of the observations with the p values (p < 0.005 for all the tested compounds). Data are the means ± SD of at least five independent experiments in duplicate.

human VAP-1 [3] = target: T3, human VAP-1 (Homo sapiens, UniProt Q16853); design: Biothie Therapies Cor; (Turku, Finland), gift; method as in PMID 21858471, PMID 30829081; details: previous studies ref 35, 40; cited from earlier work
T3 sequence (Q16853 1-763): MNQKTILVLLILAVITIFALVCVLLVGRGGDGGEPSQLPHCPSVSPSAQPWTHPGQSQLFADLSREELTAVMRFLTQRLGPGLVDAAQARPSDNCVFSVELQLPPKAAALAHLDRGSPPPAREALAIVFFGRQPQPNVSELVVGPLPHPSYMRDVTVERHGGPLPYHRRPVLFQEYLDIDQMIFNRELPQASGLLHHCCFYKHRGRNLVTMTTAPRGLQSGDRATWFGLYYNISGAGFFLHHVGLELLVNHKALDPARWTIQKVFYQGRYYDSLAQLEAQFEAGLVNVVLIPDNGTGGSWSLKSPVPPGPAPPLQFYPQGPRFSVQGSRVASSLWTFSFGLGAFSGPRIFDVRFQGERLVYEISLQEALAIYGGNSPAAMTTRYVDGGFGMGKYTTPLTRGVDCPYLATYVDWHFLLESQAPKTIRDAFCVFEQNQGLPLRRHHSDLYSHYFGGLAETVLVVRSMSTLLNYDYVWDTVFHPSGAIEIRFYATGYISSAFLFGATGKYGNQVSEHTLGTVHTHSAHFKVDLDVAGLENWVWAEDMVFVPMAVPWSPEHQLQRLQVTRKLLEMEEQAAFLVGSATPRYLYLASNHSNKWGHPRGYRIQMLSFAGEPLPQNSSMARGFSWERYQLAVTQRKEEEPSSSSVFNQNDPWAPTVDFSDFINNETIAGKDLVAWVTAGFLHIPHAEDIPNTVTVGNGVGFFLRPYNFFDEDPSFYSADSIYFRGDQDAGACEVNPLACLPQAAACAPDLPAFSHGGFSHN

human VAP-1 [4] = target: T3, human VAP-1; test: VAP-1 amine oxidase activity, Amplex Red/horseradish peroxidase assay, benzylamine as substrate
[5] = inhibitor 5 nM, 15 min pre-incubation, 300 μM kynuramine
[6] = MAO A Ki, human recombinant MAO A, kynuramine 10 μM, from slope of Vo/VI vs compound concentration (1.25–40 μM), mean ± S.D.
[7] = MAO B Ki, human recombinant MAO B, kynuramine 10 μM, from slope of Vo/VI vs compound concentration (1.25–40 μM), mean ± S.D.
[8] = inhibitor 0.2 μM, 20 μM kynuramine
[9] = KI (inhibition constant for the free enzyme) vs. MAO A, global fit, mixed model, inhibitor 0.25–2 μM, kynuramine varied
[10] = KIES (dissociation constant for the enzyme–substrate complex) vs. MAO A, global fit, mixed model, inhibitor 0.25–2 μM, kynuramine varied
[11] = kynuramine 20 μM, compound 0.05–8 μM
[12] = KI (inhibition constant for the free enzyme) vs. MAO B, global fit, mixed model, inhibitor 0.25–2 μM, kynuramine varied
[13] = KIES (dissociation constant for the enzyme–substrate complex) vs. MAO B, global fit, mixed model, inhibitor 0.25–2 μM, kynuramine varied

Sequence of murine SMOX (Q99K82 whole entry): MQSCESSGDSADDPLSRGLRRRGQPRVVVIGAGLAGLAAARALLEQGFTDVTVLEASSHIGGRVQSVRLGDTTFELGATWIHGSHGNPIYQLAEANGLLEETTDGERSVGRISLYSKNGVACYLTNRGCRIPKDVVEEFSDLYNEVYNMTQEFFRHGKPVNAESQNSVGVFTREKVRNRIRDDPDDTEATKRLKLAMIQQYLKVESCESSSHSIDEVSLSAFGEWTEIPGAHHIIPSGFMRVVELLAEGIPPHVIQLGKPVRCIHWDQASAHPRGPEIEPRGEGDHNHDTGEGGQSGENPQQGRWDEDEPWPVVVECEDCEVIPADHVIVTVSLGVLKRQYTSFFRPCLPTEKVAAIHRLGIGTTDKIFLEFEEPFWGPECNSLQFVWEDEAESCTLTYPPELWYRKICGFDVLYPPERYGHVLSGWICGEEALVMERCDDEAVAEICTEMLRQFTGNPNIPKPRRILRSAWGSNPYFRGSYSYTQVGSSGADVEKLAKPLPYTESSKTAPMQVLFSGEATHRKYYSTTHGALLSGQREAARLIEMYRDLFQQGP

Compound: C#CCN(C)CCCOc1ccc(Cl)cc1Cl [Clorgyline, clorgyline]
- Residual MAO activity in lysates [1, 5]: 0.34 ± 0.10

Compound: COc1ccccc1CNCCCCCCNCCCCCCCCNCCCCCCNCc1ccccc1OC [Compound 1, methoctramine, reference compound]
- Inhibition of SMOX (murine SMOX): more effective than 2
- Ki (human recombinant MAO A; [6]): 290 ± 60 µM
- Ki (human recombinant MAO B; [7]): 470 ± 50 µM
- GI50 ([2]; Homo sapiens): > 20 µM
- Inhibition of VAP-1 (human VAP-1 [3]): very poorly active

Compound: NCCC(=O)c1ccccc1N [kynuramine, reference compound]
- Km ([1]; read-out: apparent KM in LN-229 lysates, substrate, Michaelis–Menten fit): 25 ± 3 µM
- Km (human recombinant MAO B; read-out: KM for MAO B, substrate, human recombinant MAO B): 27 ± 4 µM

Compound: COc1ccccc1CNCCCCCCN1C(=O)c2ccc3c4c(ccc(c24)C1=O)C(=O)N(CCCCCCNCc1ccccc1OC)C3=O [Compound 7]
- Ki (human recombinant MAO A; [6]): 3.2 ± 0.2 µM
- Mode of inhibition of MAO B (human recombinant MAO B): mainly competitive/mixed
- Ki (human recombinant MAO B; [7]): 4.2 ± 0.3 µM
- GI50 ([2]; Homo sapiens, LN-229, 48 h): 0.4 ± 0.1 µM

Compound: COc1ccccc1CNCCCCCCN1Cc2ccc3c4c(ccc(c24)C1)CN(CCCCCCNCc1ccccc1OC)C3 [Compound 6]
- Ki (human recombinant MAO A; [6]): 37 ± 4 µM
- Ki (human recombinant MAO B; [7]): 27 ± 4 µM
- GI50 ([2]; Homo sapiens, LN-229, 48 h): 2 ± 0.9 µM

Compound: C[C@H](NCc1ccc(OCc2cccc(F)c2)cc1)C(N)=O [Safinamide]
- Residual MAO activity in lysates [1, 8]: 0.66 ± 0.04

Compound: COc1ccc2c(c1)[nH]c1c(C)nccc12 [Harmine, reference compound]
- Residual MAO activity in lysates [1, 8]: 0.37 ± 0.08
- Ki (human recombinant MAO B; MAO B Ki, human recombinant MAO B, kynuramine 10 μM, […], mean ± S.D.): > 10 µM

Compound: COc1ccccc1CNCCCCCCNc1ccc(CCc2ccc(NCCCCCCNCc3ccccc3OC)cc2)cc1 [Compound 4]
- Reversibility of MAO A inhibition (human recombinant MAO A): full reversibility
- Ki (human recombinant MAO A; [9]): 0.62 ± 0.11 µM
- Ki (human recombinant MAO A; [10]): 11 ± 2 µM
- Mode of inhibition of MAO A (human recombinant MAO A): mainly competitive/mixed
- Ki (human recombinant MAO A; [6]): 0.9 ± 0.2 µM
- Time dependence of MAO A inhibition (Vo/VI ratio) (human recombinant MAO A; kynuramine 10 μM): no time dependence of the inhibition was observed
- Effect on MAO activity in LN-229 lysates [1, 11]: not affected
- Reversibility of MAO B inhibition (human recombinant MAO B): full reversibility
- Ki (human recombinant MAO B; [12]): 0.31 ± 0.05 µM
- Ki (human recombinant MAO B; [13]): 15 ± 2 µM
- Mode of inhibition of MAO B (human recombinant MAO B): mainly competitive/mixed
- Ki (human recombinant MAO B; [7]): 0.3 ± 0.1 µM
- Time dependence of MAO B inhibition (Vo/VI ratio) (human recombinant MAO B; kynuramine 10 μM): no time dependence of the inhibition was observed
- GI50 ([2]; Homo sapiens, LN-229, 48 h): < 1 µM
- GI50 [2]: 0.9 ± 0.2 µM

Compound: C#CCN(C)[C@H](C)Cc1ccccc1 [Deprenyl, deprenyl]
- Residual MAO activity in lysates [1, 5]: 0.74 ± 0.04

Compound: COc1ccccc1CNCCCCCC(=O)Nc1ccc(CCc2ccc(NC(=O)CCCCCNCc3ccccc3OC)cc2)cc1 [Compound 5]
- Reversibility of MAO A inhibition (human recombinant MAO A): full reversibility
- Ki (human recombinant MAO A; [9]): 0.62 ± 0.09 µM
- Ki (human recombinant MAO A; [10]): 14 ± 2 µM
- Mode of inhibition of MAO A (human recombinant MAO A): mainly competitive/mixed
- Ki (human recombinant MAO A; [6]): 0.6 ± 0.1 µM
- Time dependence of MAO A inhibition (Vo/VI ratio) (human recombinant MAO A; kynuramine 10 μM): no time dependence of the inhibition was observed
- Effect on MAO activity in LN-229 lysates [1, 11]: concentration-dependent inhibition
- Ki ([1]; read-out: Ki for MAO activity in LN-229 lysates, kynuramine 20 μM, compound 0.05–8 μM): 2 µM
- Reversibility of MAO B inhibition (human recombinant MAO B): full reversibility
- Ki (human recombinant MAO B; [12]): 0.16 ± 0.04 µM
- Ki (human recombinant MAO B; [13]): 6 ± 1 µM
- Mode of inhibition of MAO B (human recombinant MAO B): mainly competitive/mixed
- Ki (human recombinant MAO B; [7]): 0.2 ± 0.1 µM
- Time dependence of MAO B inhibition (Vo/VI ratio) (human recombinant MAO B; kynuramine 10 μM): no time dependence of the inhibition was observed
- GI50 ([2]; Homo sapiens, LN-229, 48 h): < 1 µM
- GI50 [2]: 0.8 ± 0.1 µM
- Ki (human VAP-1 [4]): ~50 µM

Compound: C#CCN(C)Cc1ccccc1 [Pargyline, pargyline]
- Residual MAO activity in lysates ([1]; inhibitor 0.5 mM, 15 min pre-incubation, 300 μM kynuramine): 0.03 ± 0.02
- Residual activity in lysates after pre-incubation ([1]; pargyline pre-incubation 15 min, kynuramine 300 μM): about 3%

Compound: COc1cccc2c1C(=O)c1c(O)c3c(c(O)c1C2=O)C[C@@](O)(C(=O)CO)C[C@@H]3O[C@H]1C[C@H](N)[C@H](O)[C@H](C)O1 [DOXO, doxorubicin, reference compound]
- GI50 ([2]; Homo sapiens, LN-229, 48 h): 0.012 ± 0.004 µM
